# Assays:
# [1] = target: CDK4/Cyclin D1 (Homo sapiens (Human), UniProt P11802); assay: CDK4/Cyclin D1 mobility shift assay; assay type: biochemical; conditions: activated CDK4/Cyclin D1, 3.5 mM ATP, Morrison fit; read-out: CDK4D1 Ki
# [2] = target: CDK6/Cyclin D3 (Homo sapiens (Human), UniProt Q00534); assay: CDK6/Cyclin D3 mobility shift assay; assay type: biochemical; conditions: activated CDK6/Cyclin D3, 3.5 mM ATP, Morrison fit; read-out: CDK6_D3 Ki
# [3] = target: CDK4 (Homo sapiens (Human), UniProt P11802); assay: Phospho-Serine 795 Rb ELISA assay in JEKO-1 cells; assay type: cell-based; conditions: overnight treatment, phospho-Rb S795, read-out: CDK4 pRB S795 ELISA JEKO-1 cells IC50
# CDK4, sequence (P11802 2-303): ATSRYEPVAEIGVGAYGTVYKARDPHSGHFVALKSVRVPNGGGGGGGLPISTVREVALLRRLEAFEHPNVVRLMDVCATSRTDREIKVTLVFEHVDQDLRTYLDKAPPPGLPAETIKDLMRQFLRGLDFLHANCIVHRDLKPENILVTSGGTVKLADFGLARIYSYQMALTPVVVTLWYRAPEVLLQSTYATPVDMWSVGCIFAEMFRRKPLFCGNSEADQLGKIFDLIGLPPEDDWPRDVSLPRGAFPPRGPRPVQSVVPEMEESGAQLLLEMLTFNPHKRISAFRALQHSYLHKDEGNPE
# CDK4, sequence (P24385 whole entry partner): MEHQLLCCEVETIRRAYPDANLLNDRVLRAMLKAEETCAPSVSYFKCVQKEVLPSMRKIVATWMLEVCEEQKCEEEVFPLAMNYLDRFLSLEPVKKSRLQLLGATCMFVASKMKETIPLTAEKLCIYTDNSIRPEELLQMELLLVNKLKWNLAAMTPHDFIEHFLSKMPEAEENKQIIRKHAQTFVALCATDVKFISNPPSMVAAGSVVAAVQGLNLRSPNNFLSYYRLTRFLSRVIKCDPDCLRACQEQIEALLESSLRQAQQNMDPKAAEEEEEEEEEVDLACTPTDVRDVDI
# Protocol: (§1) JEKO-1 or MV4-11 cells were seeded at 15,000 or 20,000 cells per well, respectively, in 100 μL growth media and allowed to incubate at 37° C. with 5% CO2 overnight. The following day, compounds were serially diluted from a 10 mM top dose for an 11-point 3-fold dilution curve in DMSO. Compounds were intermediately diluted 1:200 into growth media prior to diluting 1:5 on cells for final concentration 10 μM to 0.1 nM in 0.1% DMSO on cells. JEKO-1 and MV4-11 cells were treated were treated overnight, at 37° C. with 5% CO2. Cells were lysed in 100 μL/well CST lysis buffer on ice and transferred to pre-coated and blocked anti-phospho-Ser795 Rb ELISA plates for overnight incubation at 4° C. Plates were washed to remove residual, unbound cellular proteins and total Rb detection antibody added for 90 minutes at 37° C. Following wash to remove unbound total Rb antibody, the HRP tagged antibody was allowed to bind for 30 minutes at 37° C. Following wash to remove unbound HRP antibody, Glo Substrate Reagent was added and incubated protected from light for 5 to 10 minutes. Plates were read in luminescence mode and IC50 values calculated.
# [4] = target: CDK6 (Homo sapiens (Human), UniProt Q00534); assay: Phospho-Serine 795 Rb ELISA assay in MV4-11 cells; assay type: cell-based; conditions: overnight treatment, phospho-Rb S795, read-out: CDK6 pRB S795 ELISA MV4-11 cells IC50
# CDK6, sequence (Q00534 whole entry): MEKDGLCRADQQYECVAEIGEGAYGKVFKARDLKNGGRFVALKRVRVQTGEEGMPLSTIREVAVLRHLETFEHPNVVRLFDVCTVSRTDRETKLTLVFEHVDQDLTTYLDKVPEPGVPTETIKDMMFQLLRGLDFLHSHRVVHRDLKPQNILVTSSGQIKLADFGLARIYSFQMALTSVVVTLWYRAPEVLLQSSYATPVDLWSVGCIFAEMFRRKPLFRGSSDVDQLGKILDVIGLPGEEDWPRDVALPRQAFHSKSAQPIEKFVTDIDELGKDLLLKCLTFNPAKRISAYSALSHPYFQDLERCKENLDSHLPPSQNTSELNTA
# CDK6, sequence (P30281 whole entry partner): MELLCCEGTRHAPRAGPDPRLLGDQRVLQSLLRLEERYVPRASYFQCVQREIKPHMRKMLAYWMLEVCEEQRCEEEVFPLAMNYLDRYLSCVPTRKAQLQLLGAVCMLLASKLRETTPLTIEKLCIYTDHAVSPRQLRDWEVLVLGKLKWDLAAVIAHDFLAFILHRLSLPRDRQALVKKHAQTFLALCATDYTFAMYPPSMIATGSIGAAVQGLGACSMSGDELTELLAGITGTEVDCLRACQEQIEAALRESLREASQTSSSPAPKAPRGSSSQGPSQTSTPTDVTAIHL
# Protocol: as §1
# CDK4/Cyclin D1, sequence (P11802 whole entry): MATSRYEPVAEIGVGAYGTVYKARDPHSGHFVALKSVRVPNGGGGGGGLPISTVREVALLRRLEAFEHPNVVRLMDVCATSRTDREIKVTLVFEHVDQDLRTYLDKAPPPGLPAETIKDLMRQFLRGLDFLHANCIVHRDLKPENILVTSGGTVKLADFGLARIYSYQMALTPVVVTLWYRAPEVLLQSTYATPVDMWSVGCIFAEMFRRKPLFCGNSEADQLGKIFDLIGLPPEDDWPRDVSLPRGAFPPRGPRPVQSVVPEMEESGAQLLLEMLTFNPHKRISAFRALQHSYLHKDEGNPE
# CDK4/Cyclin D1, sequence (P24385 whole entry partner): as the sequence (P24385 whole entry partner) above
# CDK6/Cyclin D3, sequence (Q00534 whole entry): as the sequence (Q00534 whole entry) above
# CDK6/Cyclin D3, sequence (P30281 whole entry partner): as the sequence (P30281 whole entry partner) above
Structure (SMILES),Ki [1] [nM],Ki [2] [nM],IC50 [3] [nM],IC50 [4] [nM]
Cc1nc2c(F)cc(-c3ccnc(N[C@@H]4CCN(S(C)(=O)=O)C[C@H]4O)n3)cc2n1C(C)C [Example A04],0.6,11.4,330,289
Cc1nc2cc(F)c(-c3ccnc(N[C@@H]4CCN(S(C)(=O)=O)C[C@H]4O)n3)cc2n1C(C)C [Example A05],3.3,50.8,225,541
Cc1nc2cc(F)c(-c3nc(N[C@@H]4CCN(S(C)(=O)=O)C[C@H]4O)ncc3Cl)cc2n1C(C)C [Example A06],1.4,17.5,87.4,192
Cc1nc2cc(F)c(-c3nc(N[C@@H]4CCN(S(C)(=O)=O)C[C@H]4O)ncc3F)cc2n1C(C)C [Example A07],1.8,28,182,520
CC1(C)CCc2nc3c(F)cc(-c4nc(N[C@@H]5CCN(S(C)(=O)=O)C[C@H]5O)ncc4Cl)cc3n21 [Example A09],0.1,1.4,16.8,57.6
C[C@H]1COCc2nc3c(F)cc(-c4nc(N[C@@H]5CCN(S(C)(=O)=O)C[C@H]5O)ncc4Cl)cc3n21 [Example A10],0.6,10.4,72.7,195
C[C@@H]1COCc2nc3c(F)cc(-c4nc(N[C@@H]5CCN(S(C)(=O)=O)C[C@H]5O)ncc4Cl)cc3n21 [Example A11],0.3,3,123,144
CC(C)n1c([C@H](C)O)nc2cc(F)c(-c3nc(N[C@@H]4CCOC[C@H]4O)ncc3Cl)cc21 [Example A12],0.6,7.9,29.8,108
CC(C)n1c([C@@H](C)O)nc2c(F)cc(-c3nc(N[C@@H]4CCOC[C@H]4O)ncc3Cl)cc21 [Example A13],1.7,31.5,72.2,277
CC1(C)COCc2nc3c(F)cc(-c4nc(N[C@@H]5CCOC[C@H]5O)ncc4F)cc3n21 [Example A19],0.9,14.6,69.1,318
CC1(C)OCCn2nc3c(F)cc(-c4nc(N[C@@H]5CCN(S(C)(=O)=O)C[C@H]5O)ncc4Cl)cc3c21 [Example A26],0.2,4.2,12.2,24.3
CC1(C)OCCn2nc3c(F)cc(-c4nc(N[C@@H]5CCOC[C@H]5O)ncc4Cl)cc3c21 [Example A27],1,15.7,75.6,269
CC(C)c1c2cc(-c3nc(N[C@@H]4CCN(S(C)(=O)=O)C[C@H]4O)ncc3Cl)ccc2nn1C [Example A28],0.5,6.2,99.2,131
Cn1nc2ccc(-c3nc(N[C@@H]4CCN(S(C)(=O)=O)C[C@H]4O)ncc3Cl)cc2c1C(C)(C)O [Example A29],0.6,5.1,68.6,95.7
CC(C)n1c(C2COC2)nc2c(F)cc(-c3nc(N[C@@H]4CCN(S(C)(=O)=O)C[C@H]4O)ncc3Cl)cc21 [Example A30],0.2,4.9,51.6,63.5
"Cc1nc2c(F)cc(-c3nc(N[C@@H]4CCN(S(C)(=O)=O)C[C@H]4O)ncc3Cl)cc2n1[C@H](C)CN [Example A38, (3R,4R)-4-[(4-{1-[(2R)-1-aminopropan-2-yl]-4-fluoro-2-methyl-1H-benzimidazol-6-yl}-5-chloropyrimidin-2-yl)amino]-1-(methanesulfonyl)piperidin-3-ol]",0.5,10.2,456,598
"Cc1nc2c(F)cc(-c3nc(N[C@@H]4CCN(S(C)(=O)=O)C[C@H]4O)ncc3Cl)cc2n1CC(C)N (stereo partly drawn) [Example A40, (3R,4R)-4-({4-[1-(2-aminopropyl)-4-fluoro-2-methyl-1H-benzimidazol-6-yl]-5-chloropyrimidin-2-yl}amino)-1-(methanesulfonyl)piperidin-3-ol]",0.3,3.5,85.5,346
"CC(C)n1c(C(C)(C)N)nc2c(F)cc(-c3nc(N[C@@H]4CCOC[C@H]4O)ncc3Cl)cc21 [Example A41, 3-({4-[2-(2-aminopropan-2-yl)-4-fluoro-1-(propan-2-yl)-1H-benzimidazol-6-yl]-5-chloropyrimidin-2-yl}amino)-1,5-anhydro-2,3-dideoxy-D-threo-pentitol]",3.1,48.8,92.8,216
"CNCc1nc2c(F)cc(-c3nc(N[C@@H]4CCOC[C@H]4O)ncc3Cl)cc2n1C(C)C [Example A44, 1,5-anhydro-3-[(5-chloro-4-{4-fluoro-2-[(methylamino)methyl]-1-(propan-2-yl)-1H-benzimidazol-6-yl}pyrimidin-2-yl)amino]-2,3-dideoxy-D-threo-pentitol]",4.9,114,76.5,408
"CC(C)n1c(CC(C)(C)N)nc2c(F)cc(-c3nc(N[C@@H]4CCOC[C@H]4O)ncc3Cl)cc21 [Example A45, 3-({4-[2-(2-amino-2-methylpropyl)-4-fluoro-1-(propan-2-yl)-1H-benzimidazol-6-yl]-5-chloropyrimidin-2-yl}amino)-1,5-anhydro-2,3-dideoxy-D-threo-pentitol]",1,52,65.8,468
"Cn1nc2c(F)cc(-c3nc(N[C@@H]4CCOC[C@H]4O)ncc3Cl)cc2c1C(C)(C)N [Example A49, 3-({4-[3-(2-aminopropan-2-yl)-7-fluoro-2-methyl-2H-indazol-5-yl]-5-chloropyrimidin-2-yl}amino)-1,5-anhydro-2,3-dideoxy-D-threo-pentitol]",0.7,14.3,76,219
"CC(C)(CN)n1cnc2c(F)cc(-c3nc(N[C@@H]4CCOC[C@H]4O)ncc3Cl)cc21 [Example A51, 3-({4-[1-(1-amino-2-methylpropan-2-yl)-4-fluoro-1H-benzimidazol-6-yl]-5-chloropyrimidin-2-yl}amino)-1,5-anhydro-2,3-dideoxy-D-threo-pentitol]",2,55.7,245,1530
"Cc1nc2c(F)cc(-c3nc(N[C@@H]4CCOC[C@H]4O)ncc3Cl)cc2n1C(C)(C)CN [Example A52, 3-({4-[1-(1-amino-2-methylpropan-2-yl)-4-fluoro-2-methyl-1H-benzimidazol-6-yl]-5-chloropyrimidin-2-yl}amino)-1,5-anhydro-2,3-dideoxy-D-threo-pentitol]",2.7,60.1,202,973
"CC(C)n1c([C@H](C)N)nc2c(F)cc(-c3nc(N[C@@H]4CCOC[C@H]4O)ncc3Cl)cc21 [Example A53, 3-[(4-{2-[(1S)-1-aminoethyl]-4-fluoro-1-(propan-2-yl)-1H-benzimidazol-6-yl}-5-chloropyrimidin-2-yl)amino]-1,5-anhydro-2,3-dideoxy-D-threo-pentitol]",0.6,16.7,67.3,208
"CC(C)n1c(CN)nc2c(F)cc(-c3nc(N[C@@H]4CCOC[C@H]4O)ncc3Cl)cc21 [Example A54, 3-({4-[2-(aminomethyl)-4-fluoro-1-(propan-2-yl)-1H-benzimidazol-6-yl]-5-chloropyrimidin-2-yl}amino)-1,5-anhydro-2,3-dideoxy-D-threo-pentitol]",2.3,37.5,173,605
"CC(C)n1c(CC2(N)CCCC2)nc2c(F)cc(-c3nc(N[C@@H]4CCOC[C@H]4O)ncc3Cl)cc21 [Example A59, 3-[(4-{2-[(1-aminocyclopentyl)methyl]-4-fluoro-1-(propan-2-yl)-1H-benzimidazol-6-yl}-5-chloropyrimidin-2-yl)amino]-1,5-anhydro-2,3-dideoxy-D-threo-pentitol]",0.6,56.7,47.7,521
"C[C@@H](O)c1nc2c(F)cc(-c3nc(N[C@@H]4CCOC[C@H]4O)ncc3Cl)cc2n1C(C)(C)C [Example A60, 1,5-anhydro-3-[(4-{1-tert-butyl-4-fluoro-2-[(1R)-1-hydroxyethyl]-1H-benzimidazol-6-yl}-5-chloropyrimidin-2-yl)amino]-2,3-dideoxy-D-threo-pentitol]",1.6,33.6,65.2,190
